{"source": "patent US20260014132A1", "about": "“PROTEASE ACTIVATED RECEPTOR 2 (PAR2) INHIBITOR AND ITS USES” (UNIVERSITÀ DEGLI STUDI DI PADOVA, priority 2022, published 2026)", "key": {"HepG2 cell line": {"system": "HepG2 cell line", "assay": "In vitro toxicity, real-time cell proliferation (XCelligence) in HepG2", "format": "cell-based", "description": "Real-time cell proliferation was monitored using the XCelligence tool (ACEA) and the results were expressed as Cell Index, which expresses the cell number at each point considered."}, "IL-1β": {"system": "IL-1β", "assay": "LPS-induced IL-1β transcriptional expression in THP-1 cells (RT-PCR)", "format": "cell-based, human", "method": "(§1) Given that PAR2 is deeply implicated in the induction of proinflammatory cytokines, the ability of PPA in the inhibition of proinflammatory cytokines in a context simulating bacterial sepsis was evaluated. In FIGS. 3A and 3B the THP-1 cell line of monocytic origin was used, incubated with LPS ([…]), which in example 1 had induced an increase in the synthesis of endogenous PAR2. Cells were simultaneously treated with 1-PPA at a concentration of 1 ng/ml or 100 ng/ml or medium alone as control and incubated for 1 or 4 hours. The cell extracts were used to analyze the transcriptional expression of the cytokines TNF-α and IL-1β by RT-PCR."}, "gouty arthritis": {"system": "gouty arthritis", "assay": "Mouse model of gouty arthritis (uric acid microcrystals in hind paw)", "format": "in vivo, mice (C57BL6J)", "description": "To evaluate the inhibitory capacity of 1-PPA in pain perception, notoriously mediated by PAR2 as a receptor of peripheral nerve endings (Andrea S. Rothmeier & Wolfram Ruf. Semin Immunopathol, 2012; 34:133-149), an experimental model of inflammatory arthritis was used. In particular, a mouse model of gout was used by injecting microcrystals of uric acid subcutaneously into the plantar surface of the hind legs of mice (C57BL6J), followed by injection of 1-PPA at different concentrations in one hind leg, using the contralateral leg as a control. After a few hours, the microcrystal treatment induces swelling and edema at the injection site which reaches a peak of inflammation and pain at 48 hours and then resolves spontaneously.\nTo evaluate the intensity of pain, the electronic von Frey test was used, which involves recording the intensity of the stimulus that evokes a withdrawal reflex, after the application of the pain stimulus to the plantar surface of the hind leg."}, "chronic kidney disease": {"system": "chronic kidney disease", "assay": "CKD induced by folic acid and treatment with 1-PPA", "format": "in vivo, mouse", "conditions": "FA 125 mg/kg i.p., 1-PPA i.p. 0.1 μg/g from third day, thirtieth day, expected", "method": "A single intraperitoneal injection of FA (dosage of 125 mg/kg) induces renal damage which reproduces the analogous syndrome in man after 30 days. To ensure maximum precision and least distress for the animal, the 1-PPA inoculation is performed by anesthetizing the mouse for a few minutes using deep inhalation surgical anesthesia using 4% Sevorane in medical oxygen administered through a Fluovac device (Harvard Instruments) specifically dedicated to the anesthesia of laboratory rodents.\nTreatment with 1-PPA (i.p. injection at a concentration of 0.1 μg/g of body weight) begins from the third day after the induction of renal damage (groups FA+1-PPA). Control groups are treated with PBS (FA+PBS groups).\nRenal function is monitored weekly by semiquantitative evaluation of proteinuria using multistix (Siemens). For urine collection, the […] is placed in a carefully cleaned plexiglass tray, in the presence of dedicated environmental enrichment. After 30 days from the induction of the renal damage the animals are sacrificed by cervical dislocation or excess anesthesia. Peripheral blood is collected by intracardiac puncture, and kidneys and liver are sampled in formalin and at −80° C. for subsequent evaluations of IHC and gene expression. […]"}, "TNF-α": {"system": "TNF-α", "assay": "LPS-induced TNF-α transcriptional expression in THP-1 cells (RT-PCR)", "format": "cell-based, human", "method": "as §1"}, "LPS-induced sepsis": {"system": "LPS-induced sepsis", "assay": "LPS-induced systemic sepsis model in mice", "format": "in vivo, C57BL/6 J mice", "conditions": "LPS about 10 mg/kg intraperitoneal", "method": "In vivo experiments are underway on models of systemic sepsis, in order to validate the protective effect of 1-PPA against the development of cytokine storm and septic shock with multiple organ failure, using C57BL/6 J mice. The first part of the study consists in the induction of sepsis through LPS and experimental treatment with 1-PPA.\nThe intraperitoneal administration with LPS (about 10 mg/kg, L4130, Sigma-Aldrich) associated with 1-PPA or alternatively with PBS, was carried out under anesthesia (Sevorane at 4% in medical oxygen) through the use of Fluovac (Harvard Instruments), dedicated for the anesthesia of small animals.\nThe time interval of 8 hours is considered the optimal interval for observing the onset of scientifically quantifiable sepsis in mice, and for evaluating the efficacy of a treatment aimed at inhibiting it by administering 1-PPA.\nFIG. 6A illustrates the experimental design and the quantification of the degree of malaise using a score commonly used to determine the condition of the animal, where 0 refers to the normal condition and 5 refers to a pre-terminal condition. A score of 6 was attributed to the death of the animal."}, "PAR2 [1]": {"system": "PAR2", "assay": "Cellular Thermal Shift Assay (CETSA) and Western blot in lysates of HepG2 cells overexpressing PAR2", "format": "binding, human", "conditions": "soluble fraction of extracts of HepG2 overexpressing PAR2, progressive increase in temperature", "description": "These interaction data between 1-PPA and PAR2 were also confirmed at the protein level, using the cellular thermal shift assay (CETSA) (Science 341 (6141): 84-87). This is a biophysical assay based on the principle of ligand-induced thermal stabilization of target proteins, as the melting temperature of proteins changes according to the interaction of the ligand.\nThis conformation was identified as level class 0, which is the highest scoring and most reliable analysis. […] In particular, HepG2 cells have been genetically modified to overexpress transiently PAR 2 using cDNA as expression plasmid 3.1. The soluble fraction of the cell extracts was then subjected to the CETSA test, in the presence or absence of 1-PPA, according to the protocol. The samples were also studied by Wester blot using an anti HA-tag PAR 2 monoclonal antibody."}, "[2]": {"assay": "In vivo organ damage (liver, kidney) after 26 weeks of 1-PPA", "set-up": "species or system CC57/BL6 mice", "conditions": "0.07 and 0.7 μg/g/week, normal diet, serum", "method": "The organ damage of the 1-PPA compound in vivo was also evaluated, considering the function of the liver and kidney, the main organs responsible for pharmacological catabolismln detail, the study included 2 groups of CC57/BL6 mice (4 mice/group, age 45 days), inoculated with 1-PPA at concentrations of 0.07 and 0.7 μg/g/week), for a time period of 26 weeks. All animals were fed a normal diet throughout the study. Before starting the 1-PPA inoculation, a basal blood sample was taken from all animals and a second sample was taken from the sacrifice.\nAt serum level, alanine aminotransferase (ALT) as an indicator of hepatic cytolytic damage, bilirubin as an indicator of hepatic cholestasis, blood urea nitrogen (Blood urea nitrogen, BUN) as an indicator of renal damage were evaluated. The results were expressed as the ratio between the value of the final sampling and that of the basal sampling."}, "platelet aggregation": {"system": "platelet aggregation", "assay": "Platelet aggregation, TRAP test, Multiplate analyzer, whole blood", "format": "cell-based", "conditions": "TRAP-6, increasing concentrations of 1-PPA", "description": "The analysis of platelet function can be performed by the Multiplate® analyzer (Roche Diagnostics) which is a method based on impedance aggregometry and can be used to measure platelet function in whole blood in the presence or absence of inhibitors. In particular the TRAP test is an assay for the in vitro quantitative determination of platelet function triggered by thrombin receptor activating peptide-6 (TRAP-6) which is a potent platelet activator and stimulates platelet aggregation through the thrombin receptor PAR-1, this peptide has also been found capable of activating PAR2 (Cas #AS-24190-25, CliniScience), which can be activated by thrombin in the presence of thrombomodulin (Heuberger et al, Thrombosis Research 2019, 177:91-101).\nMultiplate® Analyzer, Roche Diagnostics) was used, where the blood sample was analyzed alone or in presence of increasing concentrations of 1-PPA."}, "PAR2 [3]": {"system": "PAR2", "assay": "PAR2 mRNA expression (qPCR) in LPS-stimulated THP-1 cells", "format": "cell-based, human", "method": "(§2) In order to evaluate the effect of 1-Piperidin Propionic acid on the transcriptional activity of the membrane receptor Protease Activated Receptor-2 (PAR2), monocyte-derived cell line THP-1 was used. The cells were incubated with LPS, known to induce PAR2 expression in this cell compartment, at a concentration of 1 ng/ml, or with medium alone, as a control, for 2 hours with 1-PPA at a concentration of 1 ng/ml and 100 ng/ml. In further experiments transfected HepG2 cells were used transiently with plasmid containing the human PAR2 sequence by Lipofectamy. These cells were incubated with medium alone, as a control, or with increasing concentrations of 1-PPA, as described above. Cell extracts from both lines were then subjected to extraction of cellular RNA which was reverse transcribed into cDNA and amplified by qPCR.\n(§3) Similar results were also obtained in transfected HepG2 cells transiently to overexpress PAR2."}, "PAR2 [4]": {"system": "PAR2", "assay": "PAR2 mRNA expression (qPCR) in HepG2 cells transiently transfected to overexpress PAR2", "format": "cell-based, human", "method": "as §2, §3"}, "[5]": {"conditions": "THP-1, 1-PPA 1 ng/ml or 100 ng/ml, 1 or 4 hours"}}}
{"smiles": "O=C(O)CCN1CCCCC1", "note": "[1-PPA, 1-Piperidine Propionic Acid]", "values": [{"measurement": "non-toxic concentration relative to biologically effective dose", "setting": "HepG2 cell line; 5 μg/ml versus biologically effective dose", "value": "at least 50 times"}, {"measurement": "cellular toxic effect (Cell Index)", "setting": "HepG2 cell line; HepG2, 5 μg/ml", "value": "did not demonstrate a cellular toxic effect"}, {"measurement": "IL-1β transcriptional expression induced by LPS", "setting": "IL-1β; [5]", "value": "effectively blocked"}, {"measurement": "concentration at which inhibitory effect is achieved", "setting": "IL-1β; THP-1, LPS", "value": 1, "unit": "ng/mL"}, {"measurement": "control of IL-1β synthesis over time", "setting": "IL-1β; lowest 1-PPA concentration (1 ng/ml), persisting LPS induction", "value": "still more effective in controlling the synthesis"}, {"measurement": "stimulus to induce the withdrawal reflex (electronic von Frey test)", "setting": "gouty arthritis; compared to mice injected only with microcrystals", "value": "significantly greater stimulus"}, {"measurement": "paw edema and redness (confirmed by paw circumference)", "setting": "gouty arthritis; urate microcrystals subcutaneously in plantar surface, 1-PPA injected in hind leg, versus not treated", "value": "visually less edematous and reddened"}, {"measurement": "mean value of proteinuria measured in the urine", "setting": "chronic kidney disease", "value": "moderate residual damage"}, {"measurement": "TNF-α transcriptional expression induced by LPS", "setting": "TNF-α; [5]", "value": "effectively blocked"}, {"measurement": "concentration at which inhibitory effect is achieved", "setting": "TNF-α; THP-1, LPS", "value": 1, "unit": "ng/mL"}, {"measurement": "degree of malaise score (0 normal, 5 pre-terminal, 6 death)", "setting": "LPS-induced sepsis; 1-PPA 3 μg, maximum reached", "value": "≤ 2"}, {"measurement": "protection from LPS-induced sepsis", "setting": "LPS-induced sepsis; low concentrations of 1-PPA", "value": "protected mice from LPS-induced sepsis"}, {"measurement": "thermal stabilization of PAR2 protein (CETSA)", "setting": "PAR2 [1]", "value": "thermal stability of the PAR2 protein"}, {"measurement": "alanine aminotransferase (ALT), ratio final/basal sampling", "setting": "[2]", "value": "< 2", "unit": "×normal values"}, {"measurement": "bilirubin, ratio final/basal sampling", "setting": "[2]", "value": "< 2", "unit": "×normal values"}, {"measurement": "blood urea nitrogen (BUN), ratio final/basal sampling", "setting": "[2]", "value": "< 2", "unit": "×normal values"}, {"measurement": "platelet aggregation", "setting": "platelet aggregation", "value": "inhibiting platelet aggregation in a dose-dependent manner"}, {"measurement": "PAR2 mRNA expression", "setting": "PAR2 [3]; THP-1 cells, LPS 1 ng/ml, 2 hours, 1-PPA 1 ng/ml and 100 ng/ml", "value": "marked reduction of its expression"}, {"measurement": "concentration capable of inhibiting the synthesis of PAR2", "setting": "PAR2 [3]; THP-1 line, PAR2 overexpression conditions", "value": 1, "unit": "ng/mL"}, {"measurement": "concentration capable of inhibiting the synthesis of PAR2", "setting": "PAR2 [4]; HepG2 line, PAR2 overexpression conditions", "value": 1, "unit": "ng/mL"}, {"measurement": "PAR2 mRNA expression", "setting": "PAR2 [4]; HepG2 transiently transfected with human PAR2 plasmid, increasing concentrations of 1-PPA", "value": "effective inhibition of PAR2 mRNA"}]}
